Measurements from patent US9796711B2, “Substituted pyrazolo[3,4-b]pyridin-6-carboxylic acids and method of use” (AbbVie S.àr.l., priority 2015, dated 2017).

How the values were obtained:
ΔF508-CFTR [1] = molecular target: T1, ΔF508-CFTR (Homo sapiens, UniProt P13569, DEL508-508); assay: CFTR cell surface levels using HRP-tagged ΔF508-CFTR expressing CFBE cells, in the presence of a co-corrector; type: cell-based; conditions: HRP-tagged ΔF508-CFTR expressing CFBE cells, in the presence of 3 μM co-corrector; for EC50: read-out: EC50
T1 construct: host or cells: CFBE41o-, doxycycline-inducible
Procedure, shortened: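 Cells were seeded with 0.5 μg/mL doxycycline and held 68 h at 37 °C. Test compounds plus 3 μM co-corrector (final 0.1% DMSO) were then added for 20 h at 33 °C. Washed cells received HRP substrate, and luminescence was normalized between DMSO and 3 μM co-corrector controls.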

ΔF508-CFTR [2] = molecular target: T1, ΔF508-CFTR; assay: CFTR cell surface levels using HRP-tagged ΔF508-CFTR expressing CFBE cells, intrinsic corrector capacity; type: cell-based; conditions: HRP-tagged ΔF508-CFTR CFBE41o- cells, compounds alone (intrinsic corrector capacity), 20 hours at 33° C.; for % Activation: positive control 3 μM corrector; for EC50: read-out: EC50
Procedure, shortened: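 Here the cells express ΔF508-CFTR with horseradish peroxidase inserted in extracellular loop 4, so only rescued channel at the surface gives luminescent signal. Compounds act on their own, 20 h at the reduced temperature of 33 °C; values are percent activity relative to DMSO and a 3 μM corrector.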

T1 sequence (P13569 with tags, fused parts or gaps DEL508-508): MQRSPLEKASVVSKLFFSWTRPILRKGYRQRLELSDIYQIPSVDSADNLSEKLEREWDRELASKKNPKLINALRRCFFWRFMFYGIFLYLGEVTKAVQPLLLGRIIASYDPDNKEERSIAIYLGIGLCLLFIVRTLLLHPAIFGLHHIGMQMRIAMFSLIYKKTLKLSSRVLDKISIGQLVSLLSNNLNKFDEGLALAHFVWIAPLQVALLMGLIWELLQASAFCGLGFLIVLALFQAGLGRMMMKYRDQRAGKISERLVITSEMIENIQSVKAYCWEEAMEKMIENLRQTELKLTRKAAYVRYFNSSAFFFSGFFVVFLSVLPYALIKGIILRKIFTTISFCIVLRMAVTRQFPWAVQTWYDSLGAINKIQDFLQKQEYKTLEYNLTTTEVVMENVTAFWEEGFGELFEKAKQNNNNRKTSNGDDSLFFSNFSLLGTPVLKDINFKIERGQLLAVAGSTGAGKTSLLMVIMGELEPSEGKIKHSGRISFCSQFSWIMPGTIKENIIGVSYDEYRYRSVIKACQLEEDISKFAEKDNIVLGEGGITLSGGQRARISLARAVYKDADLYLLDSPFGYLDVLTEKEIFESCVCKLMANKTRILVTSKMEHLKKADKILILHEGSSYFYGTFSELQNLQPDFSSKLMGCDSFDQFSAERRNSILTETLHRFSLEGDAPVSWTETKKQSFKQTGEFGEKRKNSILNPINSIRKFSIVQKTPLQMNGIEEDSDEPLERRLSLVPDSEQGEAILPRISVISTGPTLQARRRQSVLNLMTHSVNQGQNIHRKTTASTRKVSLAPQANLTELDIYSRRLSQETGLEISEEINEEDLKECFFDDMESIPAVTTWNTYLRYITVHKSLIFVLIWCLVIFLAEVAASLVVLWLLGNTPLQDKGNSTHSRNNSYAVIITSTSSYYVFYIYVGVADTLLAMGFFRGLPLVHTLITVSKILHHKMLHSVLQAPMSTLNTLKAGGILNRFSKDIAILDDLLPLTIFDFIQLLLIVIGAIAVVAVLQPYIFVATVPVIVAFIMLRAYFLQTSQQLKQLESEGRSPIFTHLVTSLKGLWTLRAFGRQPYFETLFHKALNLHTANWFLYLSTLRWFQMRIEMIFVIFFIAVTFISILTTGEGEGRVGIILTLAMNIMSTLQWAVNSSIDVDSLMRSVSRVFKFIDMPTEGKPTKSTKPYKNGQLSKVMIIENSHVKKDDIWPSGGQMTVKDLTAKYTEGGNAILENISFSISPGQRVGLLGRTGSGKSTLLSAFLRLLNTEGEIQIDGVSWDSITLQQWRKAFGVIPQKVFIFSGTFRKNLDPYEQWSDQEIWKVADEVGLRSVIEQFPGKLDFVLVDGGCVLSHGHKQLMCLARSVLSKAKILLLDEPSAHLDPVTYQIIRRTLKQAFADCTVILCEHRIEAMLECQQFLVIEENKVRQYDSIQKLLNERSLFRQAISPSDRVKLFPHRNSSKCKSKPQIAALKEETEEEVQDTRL

Compound	% Activation (ΔF508-CFTR [1])	EC50 (ΔF508-CFTR [1])	% Activation (ΔF508-CFTR [2])	EC50 (ΔF508-CFTR [2])
CC(C)c1nn(C2CCCCC2)c2nc(C(=O)O)cc(-c3cnc(N(C)C4CCN(C(=O)OC(C)(C)C)CC4)nc3)c12 [compound 374, 4-(2-{[1-(tert-butoxycarbonyl)piperidin-4-yl](methyl)amino}pyrimidin-5-yl)-1-cyclohexyl-3-(propan-2-yl)-1H-pyrazolo[3,4-b]pyridine-6-carboxylic acid]	297.35%	464 nM	114.2%	595 nM
Cc1nn(-c2ccccc2)c2nc(C(=O)O)cc(OCC3(C)COC3)c12 [compound 375, 3-methyl-4-[(3-methyloxetan-3-yl)methoxy]-1-phenyl-1H-pyrazolo[3,4-b]pyridine-6-carboxylic acid]	184.1%	1670 nM	36.645%	3340 nM
COC1CCC(Oc2cc(C(=O)O)nc3c2c(C)nn3-c2ccccc2)CC1 (stereo not shown) [compound 376, 4-[(4-methoxycyclohexyl)oxy]-3-methyl-1-phenyl-1H-pyrazolo[3,4-b]pyridine-6-carboxylic acid]	289.4%	1140 nM	109.7%	1610 nM
Cc1nn(-c2ccccc2)c2nc(C(=O)O)cc(OCC(F)C3CCOCC3)c12 (stereo not shown) [compound 377, 4-[2-fluoro-2-(oxan-4-yl)ethoxy]-3-methyl-1-phenyl-1H-pyrazolo[3,4-b]pyridine-6-carboxylic acid]	295.65%	1500 nM	95.185%	1670 nM
Cc1nn(-c2ccccc2)c2nc(C(=O)O)cc(OCC3(F)CCN(C)C3)c12 (stereo not shown) [compound 378, 4-[(3-fluoro-1-methylpyrrolidin-3-yl)methoxy]-3-methyl-1-phenyl-1H-pyrazolo[3,4-b]pyridine-6-carboxylic acid]	140.5%	3340 nM	14.56%	5010 nM
Cc1nn(-c2ccccc2)c2nc(C(=O)O)cc(OC[C@@H](F)C3CCN(C)CC3)c12 [compound 379, 4-[(2S)-2-fluoro-2-(1-methylpiperidin-4-yl)ethoxy]-3-methyl-1-phenyl-1H-pyrazolo[3,4-b]pyridine-6-carboxylic acid]	128.5%	5010 nM	4.874%	5010 nM
Cc1nn(-c2ccccc2)c2nc(C(=O)O)cc(OC[C@H](F)C3CCN(C)CC3)c12 [compound 380, 4-[(2R)-2-fluoro-2-(1-methylpiperidin-4-yl)ethoxy]-3-methyl-1-phenyl-1H-pyrazolo[3,4-b]pyridine-6-carboxylic acid]	141.7%	950 nM	14.735%	5010 nM
Cc1nn(-c2ccccc2)c2nc(C(=O)O)cc(OCC3(F)CCCN(C4COC4)C3)c12 (stereo not shown) [compound 381, 4-{[3-fluoro-1-(oxetan-3-yl)piperidin-3-yl]methoxy}-3-methyl-1-phenyl-1H-pyrazolo[3,4-b]pyridine-6-carboxylic acid]	182.9%	1670 nM	17.695%	5010 nM
Cc1nn(-c2ccccc2)c2nc(C(=O)O)cc(OCC3CCC(F)(F)C3)c12 (stereo not shown) [compound 382, 4-[(3,3-difluorocyclopentyl)methoxy]-3-methyl-1-phenyl-1H-pyrazolo[3,4-b]pyridine-6-carboxylic acid]	268.1%	1410 nM	80.645%	1670 nM
Cc1nn(-c2ccccc2)c2nc(C(=O)O)cc(OCC(=O)N3CCCCC3)c12 [compound 383, 3-methyl-4-[2-oxo-2-(piperidin-1-yl)ethoxy]-1-phenyl-1H-pyrazolo[3,4-b]pyridine-6-carboxylic acid]	129.7%	5010 nM	16.587%	5010 nM
Cc1nn(-c2ccccc2)c2nc(C(=O)O)cc(OCC3(S(C)(=O)=O)CCC3)c12 [compound 384, 4-{[1-(methanesulfonyl)cyclobutyl]methoxy}-3-methyl-1-phenyl-1H-pyrazolo[3,4-b]pyridine-6-carboxylic acid]	123%	5010 nM	8.1785%	5010 nM
Cc1nn(-c2ccccc2)c2nc(C(=O)O)cc(OCCN(CC(C)C)C3CC3)c12 [compound 385, 4-{2-[cyclopropyl(2-methylpropyl)amino]ethoxy}-3-methyl-1-phenyl-1H-pyrazolo[3,4-b]pyridine-6-carboxylic acid]	238.75%	1670 nM	54.89%	1670 nM
Cc1nn(-c2ccccc2)c2nc(C(=O)O)cc(OCC3(C)CC(F)(F)C3)c12 [compound 386, 4-[(3,3-difluoro-1-methylcyclobutyl)methoxy]-3-methyl-1-phenyl-1H-pyrazolo[3,4-b]pyridine-6-carboxylic acid]	250.65%	1440 nM	64.285%	1310 nM
Cc1nn(-c2ccccc2)c2nc(C(=O)O)cc(OCC3(CF)CC3)c12 [compound 387, 4-{[1-(fluoromethyl)cyclopropyl]methoxy}-3-methyl-1-phenyl-1H-pyrazolo[3,4-b]pyridine-6-carboxylic acid]	224.5%	1670 nM	65.365%	1670 nM
COCCC1(COc2cc(C(=O)O)nc3c2c(C)nn3-c2ccccc2)CC1 [compound 388, 4-{[1-(2-methoxyethyl)cyclopropyl]methoxy}-3-methyl-1-phenyl-1H-pyrazolo[3,4-b]pyridine-6-carboxylic acid]	171.6%	1460 nM	50.555%	1670 nM
Cc1nn(-c2ccccc2)c2nc(C(=O)O)cc(OCC3CCCC3(F)F)c12 (stereo not shown) [compound 389, 4-[(2,2-difluorocyclopentyl)methoxy]-3-methyl-1-phenyl-1H-pyrazolo[3,4-b]pyridine-6-carboxylic acid]	280.6%	1290 nM	101.73%	1670 nM
CC(C)Oc1nn(-c2ccccc2)c2nc(C(=O)O)cc(-c3ccc(N4CCOCC4)cc3)c12 [compound 390, 4-[4-(morpholin-4-yl)phenyl]-1-phenyl-3-[(propan-2-yl)oxy]-1H-pyrazolo[3,4-b]pyridine-6-carboxylic acid]	362%	272 nM	177.8%	585 nM
COCC1CCN(c2cc(C(=O)O)nc3c2c(C(C)C)nn3-c2ccc(F)cc2)CC1 [compound 391, 1-(4-fluorophenyl)-4-[4-(methoxymethyl)piperidin-1-yl]-3-(propan-2-yl)-1H-pyrazolo[3,4-b]pyridine-6-carboxylic acid]	528.7%	374 nM	306.23%	590 nM
CC(C)c1nn(-c2ccnc(N3CCCC3)c2)c2nc(C(=O)O)cc(-c3ccc(N4CCC(C#N)CC4)cc3)c12 [compound 392, 4-[4-(4-cyanopiperidin-1-yl)phenyl]-3-(propan-2-yl)-1-[2-(pyrrolidin-1-yl)pyridin-4-yl]-1H-pyrazolo[3,4-b]pyridine-6-carboxylic acid]	519.35%	323 nM	302%	345 nM
